Key:
Format in all cases: cell-based, human
[1] = system: unfolded protein response (PERK, EIF2A); test: Western blot of UPR proteins in differentiated LUHMES neurons; settings: 48 h; for phosphorylated EIF2A (pEIF2A) protein / phosphorylated PERK (pPERK) protein: thapsigargin 30 nM or annonacin 25 nM
Method: (§1) Nunc™ Nunclon™ Delta 6-well (for protein and mRNA) or 48-well (for cell assays) plates (Thermo Fisher Scientific, Waltham, Mass., USA) were coated with 100 μg/ml poly-L-lysine (Sigma-Aldrich, St. Louis, Mo., USA) and 5 μg/ml fibronectin (Sigma-Aldrich). LUHMES (Lund Human Mesencephalic) cells, derived from human embryonic ventral mesencephalic cells by conditional immortalization (Tet-off v-myc over-expression) were seeded out in a concentration of 130,000 cells/cm^2 to achieve a confluence of 50%. They were then differentiated for 8 days in a medium of DMEM/F12 (Sigma-Aldrich), 1 μg/ml tetracycline, […] and 490 μg/ml dbcAMP into post-mitotic neurons with a dopaminergic phenotype (Lotharius et al. 2005).
(§2) For all experiments with annonacin, the medium was replaced during the intoxication period with new medium containing glucose levels reduced to 250 μM, i.e. the physiological concentration in the human brain.
(§3) Protein was extracted by scraping the cells from the culture plate with Mammalian Protein Extraction Reagent (M-PER, Thermo Fisher Scientific) and 1× cOmplete Protease Inhibitor Cocktail Tablets (Hoffmann-La Roche, Basel, Switzerland) and 1× PhosSTOP Phosphatase Inhibitor Cocktail Tablets (Hoffmann-La Roche). For pNRF2 blots, cells were extracted with 2% SDS tris-buffer instead of M-PER in order to obtain whole cell extracts and not to lose the nuclear fraction. The protein solution was frozen at −80° C., immediately after retrieval, for a minimum of two hours. The solution was then thawed on ice, vortexed, centrifuged at 5000 g for 15 min at 4° C. and the supernatant retrieved. Protein concentrations were determined using the BCA kit (Thermo Fisher Scientific) by heating the samples at 60° C. for 30 min and measuring the absorption on the NanoDrop 2000c Spectrophotometer (Thermo Fisher Scientific).
200 μg of protein were diluted to equal concentrations with M-PER lysis buffer (Thermo Fisher Scientific) up to 270 μl. The PERK D11A8 antibody (Cell Signaling Technology, Beverly, Mass., USA) was added to a concentration of 1:100 and allowed to bind the antigen for one hour in a rotating 1.5 ml microcentrifuge tube. Then 30 μl of protein sepharose A beads (Sigma-Aldrich, 3 mg per ml) were added to each tube and left rotating overnight at 4° C. The tubes were then centrifuged at 10,000 g for 3 minutes and the supernatant was discarded. The beads were washed in M-PER three times. Each time the beads were centrifuged and the supernatant was extracted with a Hamilton Syringe (Hamilton, Bonaduz, Switzerland) and discarded. The beads were then mixed with 15 μl 1× Roti®-Load 1 (Carl Roth) and heated at 95° C. for 5 minutes. After another centrifugation step of 10,000 g for 1 minute the supernatant was loaded onto a gel with the Hamilton syringe and then blotted as described below.
(§4) 20 μg of protein (unless indicated otherwise) were adjusted to equal concentrations between samples by dilution with M-PER and subsequently heated at 95° C. for 5 minutes with Roti®-Load 1 (Carl Roth). SDS-PAGE was performed using Any kD™ Mini-PROTEAN® TGX™ Gels (BioRad, Berkeley, Calif., USA) in a tris-glycine running buffer. The protein was blotted onto PVDF membrane (BioRad) at 70 V for 65 minutes on ice. The membrane was blocked with 1× Roti®-Block solution (Carl Roth) for 1 h and then incubated at 4° C. overnight under gentle shaking with the primary antibody (see Table 5) in TBS with 5% BSA (Cell Signaling Technology) and 0.05% TWEEN (Sigma-Aldrich).
The membranes were then washed and incubated with the species specific HRP-bound secondary antibody (Vector Laboratories, Burlingame, Calif., USA) at 1:2500 in 1× Roti®-Block solution for 2 h, followed by further washing and exposure to Clarity Western ECL Substrate (BioRad) or, in the case of MC1 and 4R-tau, to Amersham™ ECL™ Prime (GE Healthcare). […]

[2] = system: EIF2AK3, EIF2A and ATF4 mRNA; test: Quantitative PCR of UPR genes in differentiated LUHMES neurons; settings: 48 h; for ATF4 mRNA expression: thapsigargin 30 nM or annonacin 25 nM
Method: as §1, §2
(§5) RNA from human tissue samples was extracted by grinding the tissue in liquid nitrogen to a powder and then dissolving it in the RA1 buffer supplied as part of the NucleoSpin® RNA (Macherey Nagel) RNA extraction kit+1% (v/v) 2-mercaptoethanol (Sigma-Aldrich). RNA from cells was extracted by scraping the cells from the culture plate with RA1 buffer+1% (v/v) 2-mercaptoethanol. The remaining extraction procedure was according to the manufacturer's instructions for the NucleoSpin® RNA kit. RNA concentrations were determined using the NanoDrop 2000c Spectrophotometer. The RNA was then transcribed into cDNA with the iScript™ cDNA Synthesis Kit (BioRad) using the manufacturer's instructions. Real-Time PCR was performed on the Applied Biosystems® StepOnePlus™ (Life Technologies) system using TagMan® Universal Master Mix II and TaqMan® primers against total MAPT, MAPT 3R, MAPT 4R, EIF2A, EI2AK3 and ATF4. POL2A and PSCM1 served as reference targets as they were determined to be the most stably expressed across experimental conditions. The results were analyzed using the StepOne Plus software (Life Technologies) and Qbase software (Biogazelle) and were then graphically and statistically analyzed with Prism 6 (GraphPad Software). Absolute quantification was performed by creating a standard curve with plasmids containing either the 2N3R or the 2N4R spliced variant of MAPT (see Table 2). The absolute quantity was computed by deriving the relationship between CT values and absolute quantity with the StepOne Plus software.

LUHMES neurons [3] = test: MTT assay, annonacin-treated LUHMES neurons; settings: annonacin alone, different concentrations, 48 h
Method: as §1, §2
Thiazolyl Blue Tetrazolium […] (MTT) (Sigma Aldrich) was dissolved in sterile PBS to a concentration of 5 mg/ml. This stock solution was added to the cells in culture medium to achieve a final concentration of 0.5 mg/ml. The 48-well culture plate was then incubated at 37° C. for 1 h, the medium removed completely and frozen at −80° C. for 1 h. The plate was then thawed, 300 μl DMSO (AppliChem, Darmstadt, Germany) was added per well and the plate was shaken to ensure complete dissolution of the violet crystals. 100 μl from each well were transferred to a new 96-well plate and the absorbance was read with the FLUOstar Omega (BMG Labtech) platereader at a wavelength of 590 nm (reference wave length 630 nm). The data was analyzed using the MARS Data Analysis Software (BMG Labtech) and Prism 6.

LUHMES neurons [4] = test: ATP assay, annonacin-treated LUHMES neurons; settings: annonacin alone, different concentrations, 48 h
Method: as §1, §2
ATP assays were conducted using the ViaLight™ plus kit by Lonza according to the manufacturer's instructions. Luminescence was read with the FLUOstar Omega (BMG Labtech) platereader. The data was analyzed using the MARS Data Analysis Software (BMG Labtech) and Prism 6.

LUHMES neurons [5] = test: Morphological inspection and counts of viable cells; settings: annonacin 25 nM, 48 h
Method: as §1, §2
The protection by the PERK activator against annonacin and 4R-tau protein overexpression was also evident on morphological inspection of the cells. […] Lentiviral 4R-tau overexpression had similar effects. […] Cell counts of viable cells with intact nuclear and somatic morphology were counted in randomly selected 1300×1000 sized areas in 4 biological replicates each, confirming the protective effects of Pa.

tau = test: Western blot of tau conformation and phosphorylation, annonacin model; settings: annonacin 25 nM, 48 h
Method: as §1, §2, §3, §4
The membranes were then washed and incubated with the species specific HRP-bound secondary antibody (Vector Laboratories, Burlingame, Calif., USA) at 1:2500 in 1× Roti®-Block solution for 2 h, followed by further washing and exposure to Clarity Western ECL Substrate (BioRad) or, in the case of MC1 and 4R-tau, to Amersham™ ECL™ Prime (GE Healthcare). Chemiluminescence was detected with the Gel Doc™ XR System (BioRad) and analyzed with Image Lab™ software (BioRad), followed by graphical and statistical analysis with Prism 6 (GraphPad Software).

[6] = system: 4R-tau and 3R-tau isoforms; test: Western blot of 3R-/4R-tau isoforms, annonacin model; settings: annonacin 25 nM, 48 h
Method: as §1, with “2005). […]” for “2005).”
Protein was extracted by scraping the cells from the culture plate with Mammalian Protein Extraction Reagent (M-PER, Thermo Fisher Scientific) and 1× cOmplete Protease Inhibitor Cocktail Tablets (Hoffmann-La Roche, Basel, Switzerland) and 1× PhosSTOP Phosphatase Inhibitor Cocktail Tablets (Hoffmann-La Roche). […] Protein concentrations were determined using the BCA kit (Thermo Fisher Scientific) by heating the samples at 60° C. for 30 min and measuring the absorption on the NanoDrop 2000c Spectrophotometer (Thermo Fisher Scientific). […]

[7] = system: 3R/4R MAPT mRNA, splicing factor SRSF2; test: Quantitative PCR of MAPT isoforms and splicing factors, annonacin model; settings: annonacin
Method: as §1, §2, §5

Structure (SMILES)	total EIF2A protein ([1]; annonacin 25 nM, vs untreated)	total PERK protein ([1]; annonacin 25 nM, vs untreated)	phosphorylated EIF2A (pEIF2A) protein ([1]; vs untreated)	phosphorylated PERK (pPERK) protein ([1]; vs untreated)	EIF2A mRNA expression ([2]; annonacin 25 nM)	ATF4 mRNA expression [2]	MTT signal (LUHMES neurons [3])	ATP concentration (LUHMES neurons [4])	condensation of DNA to chromatin clumps (LUHMES neurons [5])	density of the dendritic network (LUHMES neurons [5])	total tau protein (HT7) (tau)	AD2 (p-Ser-396 and 404) tau phosphorylation (tau; vs control)	CP13 (p-Ser-202) tau phosphorylation (tau; vs control)	MC1 pathological tau conformation (tau; vs control)	4R-tau protein level [6]	splicing factor SRSF2 mRNA [7]	4R-tau mRNA level ([7]; 48 h)	pPERK/PERK ratio ([1]; thapsigargin 30 nM)	EIF2AK3 mRNA expression ([2]; thapsigargin 30 nM)
CCCCCCCCCCCC[C@@H](O)[C@H]1CC[C@H]([C@H](O)CCCC[C@H](O)CCCCC[C@@H](O)CC2=CC(C)OC2=O)O1 (stereo partly shown) [annonacin]	reduced	reduced	reduced	increased	upregulated	upregulated	concentration-dependent decline	concentration-dependent decline	led to the condensation of DNA to chromatin clumps	reduced	not altered	significantly increased	significantly increased	increased	increase	significantly increase	increase		
C/C=C(/C)C(=O)O[C@H]1C(C)=C2[C@H]([C@@H]1OC(=O)CCCCCCC)[C@@](C)(OC(C)=O)C[C@H](OC(=O)CCC)[C@@]1(O)[C@H]2OC(=O)[C@@]1(C)O [thapsigargin]			increased phosphorylation	increased phosphorylation		increased expression												significantly increased	increased expression

Source: patent US10369123B2, “Perk activator for the treatment of neurodegenerative diseases” (DEUTSCHES ZENTRUM FÜR NEURODEGENERATIVE ERKRANKUNGEN E.V. …, priority 2014, dated 2019)
